Patent publication US20260263628A1, “AN ORAL LIQUID COMPOSITION OF VINORELBINE” (INSTITUT GUSTAVE ROUSSY, priority 2022, published 2026)
Counter-ions that a name gives are not always drawn. Like-named read-outs stand apart in the source and are kept apart here.

How the values were obtained:
[1] = Isothermal titration calorimetry of CD/vinorelbine systems (titration and competition with SGM); assay type: physicochemical; details: 25° C.; for Binding constant / ΔbH° (inclusion enthalpy): vinorelbine-CD, phosphate buffer pH 7.0
Protocol: In the first instance, 12 CDs and CD derivatives supplied by Captisol® (Kansas, USA), SIGMA® (St Louis, Missouri, USA) and MSD® (New Jersey, USA) and authorized by the FDA or the European Medicines Agency (EMA) were tested (U.S Food and Drug Administration C for DE and. Food Additive Status List. FDA 2022. U.S Food and Drug Administration C for DE and. Select Committee on GRAS Substances 2022. Committee for Human Medicinal Products. Cyclodextrins used as excipients. EMA 2017:16). These were alpha-CD, beta-[…] (methyl-beta-CD, low substitution degree), RAMEB (methyl-beta-CD, higher substitution degree), DIMEB (di-O-methyl-beta-[…] (tri-O-methyl-beta-CD), HP-beta-CD (Hydroxypropyl-beta-CD), SBE-beta-CD (Sulfobutylether-beta-CD), gamma-CD, HP-gamma-CD (Hydroxypropyl-gamma-CD), SBE-gamma-CD (Sulfobutylether-gamma-CD), and sugammadex (SGM). Vinorelbine ditartrate and 50 mM CD solutions were prepared in phosphate buffer pH 7.0. […] To confirm the validity of the chosen stoichiometric model and to increase the accuracy of the thermodynamic parameters, each system was also subjected to a competition experiment with SGM: a solution of 0.5 mM vinorelbine and 10 mM CD titrated against a mixture containing 5 mM SGM and 10 mM CD. […] For all CDs the measurements were performed at 25° C., and the stirring speed was set at 1000 rpm. The resulting heat flux was recorded as a function of time. Prior to data analysis, blank titrations were performed under the same experimental conditions by injecting individual species into buffer, and/or buffer into species and buffer into buffer to determine the heat of dilution. […] The peak area after each injection was obtained by integration of the resulting signal and was expressed as the heat effect per injection. The binding constant (KB), inclusion enthalpy (ΔbH°), and heat capacity (ΔbCp®) were determined using a program developed by Bertaut and Landy involving a global analysis of all binding isotherms obtained for a given system (Bertaut et al. Beilstein J Org Chem 2014:12). A set of thermodynamic parameters was employed for simultaneous nonlinear regression analyses of titration and competition experiments.

[2] = Simulated complexation of vinorelbine in CD using the constants of Table 2; details: for CD concentration needed to obtain 95% of complexation: vinorelbine solution at 20 mg/mL (25.7 mmol/L)
Protocol: To obtain 95% of complexation for a solution at 20 mg/mL (ie 25.7 mmol/L), about 62 mmol/L of SGM or about 71 mmol/L of SBE-beta-CD is needed.
Using the constant values of Table 2, we simulated the complexation of vinorelbine in CD depending on the CD concentration and the final concentration of the vinorelbine solution. To achieve a concentration of 10 mg/mL, approximately 49 mmol/L sugammadex or 58 mmol/L SBE-beta-CD is required to reach 95% of complexation. For 18 mg/mL, approximately 59 mmol/L sugammadex or 68 mmol/L SBE-beta-CD is required to obtain the same complexation rate. […] This indicates a real and strong complexation between vinorelbine and cyclodextrin.

[3] = Haze / precipitate on mixing CD with vinorelbine (2D NMR sample preparation); assay type: physicochemical
Protocol: In order to confirm the type of existing interaction (inclusion complex, type of binding) between CD and vinorelbine, a two-dimensional proton NMR was performed on PA (Spitzer et al, J Heterocycl Chem 1995; 32:1255-9), CDs (Schneider et al, Chem Rev 1998; 98:1755-86) and complexes (Vogt et al, Mol Pharm 2012; 9:3357-74; Péan et al, J Chim Phys Phys-Chim Biol 1999; 96:1486-93). Vinorelbine 10 mM stock solution (SS) was prepared by dissolving 21.58 mg of vinorelbine tartrate in 2 mL of deuterated water. CD stock solutions were prepared by dissolving: 21.78 mg SGM in 1 mL heavy water (SS2), 9.73 mg alpha-CD in ImL heavy water (SS3), 21.63 mg SBE-beta-CD in 1 mL heavy water (SS4), and 20.72 mg SBE-gamma-CD in 1 mL heavy water (SS5). These stock solutions were used for the preparation of 10 samples containing vinorelbine, CDs or a mixture of CDs and vinorelbine in deuterated water as shown in Table 1.
A range of vinorelbine-SGM mixtures was performed from 1.5 mmol/L to 5 mmol/L. The haze appears from the mixture of concentration 2.5 mmol/L (sample 10).

[4] = test system: EpiOral; assay type: cell-based; details: vinorelbine 20 mg/mL
Protocol: EpiOral were also used for immunohistology analysis as follow: 3 untreated tissues (negative control, NC), 3 tissues in contact with SBE-β-CD, 3 tissues in contact with vinorelbine at 20 mg/mL concentration, 3 tissues in contact with vinorelbine complexed with SBE-β-CD and 3 tissues in contact with 1% Triton X-100 (positive control, PC). Tissues samples were fixed with 4% PFA and embedded in paraffin. Sections (3 μm thick) were deparaffinized and were stained with Hematoxylin and Eosin (H&E). For immunofluorescence, slides were incubated overnight at 4° C. with primary antibodies diluted in 0.02% Triton X-100-PBS. Primary antibodies were as follows: rabbit anti-Ki67 (ab16667; 1/75; Abcam), mouse anti-E-Cadherin (ab1416; 1/100; Abcam), rabbit anti-Claudin 4 (ab210796; 1/200; Abcam), mouse anti-Cytokeratin 10 (ab9026; 1/100; Abcam), rabbit anti-Cytokeratin 13 (ab97327; 1/50; Abcam) and mouse anti-Cytokeratin 14 (ab7800; 1/50; Abcam). For immunofluorescence detection, secondary antibody Alexa Fluor™ plus 488 goat anti-mouse (1:200; Invitrogen A11029), Alexa Fluor™ plus 488 donkey anti-rabbit (1:200; Invitrogen A21206), Alexa Fluor™ plus 594 goat anti-mouse (1:200; Invitrogen A32742) and Alexa Fluor™ plus 594 goat anti-rabbit (1:200; Invitrogen A32740) were used. […]

[5] = cited from earlier work

Compound	Heat variation / interaction with vinorelbine in titration experiments [1]	Binding constant [1] [L/mol]	ΔbH° (inclusion enthalpy) [1]	CD concentration required to reach 95% of complexation ([2]; vinorelbine 10 mg/mL)	CD concentration required to reach 95% of complexation ([2]; vinorelbine 18 mg/mL)	CD concentration needed to obtain 95% of complexation [2]	Haze / precipitate when mixed with vinorelbine [3]	Concentration of vinorelbine-CD mixture from which haze appears ([3]; range 1.5 to 5 mmol/L, deuterated water) [µM]	Cytotoxicity / TUNEL marking [4]	E-cadherin marking (tight junctions) ([4]; Triton X-100 1%)	Solubility ([5]; aprotic solvents)	Solubility ([5]; methanol)	Solubility ([5]; water)
OC[C@H]1O[C@@H]2O[C@H]3[C@H](O)[C@@H](O)[C@@H](O[C@H]4[C@H](O)[C@@H](O)[C@@H](O[C@H]5[C@H](O)[C@@H](O)[C@@H](O[C@H]6[C@H](O)[C@@H](O)[C@@H](O[C@H]7[C@H](O)[C@@H](O)[C@@H](O[C@H]1[C@H](O)[C@H]2O)O[C@@H]7CO)O[C@@H]6CO)O[C@@H]5CO)O[C@@H]4CO)O[C@@H]3CO [Alpha-CD, alpha-cyclodextrin]	small heat variation	106	-1.185 kcal/mol	–	–	–	–	–	–	–	–	–	–
O=C(O)CCSC[C@H]1O[C@@H]2O[C@H]3[C@H](O)[C@@H](O)[C@@H](O[C@H]4[C@H](O)[C@@H](O)[C@@H](O[C@H]5[C@H](O)[C@@H](O)[C@@H](O[C@H]6[C@H](O)[C@@H](O)[C@@H](O[C@H]7[C@H](O)[C@@H](O)[C@@H](O[C@H]8[C@H](O)[C@@H](O)[C@@H](O[C@H]9[C@H](O)[C@@H](O)[C@@H](O[C@H]1[C@H](O)[C@H]2O)O[C@@H]9CSCCC(=O)O)O[C@@H]8CSCCC(=O)O)O[C@@H]7CSCCC(=O)O)O[C@@H]6CSCCC(=O)O)O[C@@H]5CSCCC(=O)O)O[C@@H]4CSCCC(=O)O)O[C@@H]3CSCCC(=O)O [SGM, sugammadex]	an interaction is observed	511	-3.177 kcal/mol	approximately 49 mmol/L	approximately 59 mmol/L	about 62 mmol/L	a haze appeared	≥ 2500	–	–	–	–	–
CCC1=C[C@@H]2CN(C1)Cc1c([nH]c3ccccc13)[C@@](C(=O)OC)(c1cc3c(cc1OC)N(C)[C@H]1[C@@](O)(C(=O)OC)[C@H](OC(C)=O)[C@]4(CC)C=CCN5CC[C@]31[C@@H]54)C2 [vinorelbine, vinorelbine ditartrate salt hydrate]	–	–	–	–	–	–	–	–	causes cell mortality and destroys tight tissue junctions	loss of E-cadherin marking	insoluble	partially soluble	totally soluble
Sulfobutylether-gamma-CD [SBE-gamma-CD]	an interaction is observed	121	+514 cal/mol	–	–	–	–	–	–	–	–	–	–
sulfobutylether-beta-cyclodextrin [SBE-beta-CD]	an interaction is observed	412	+2305 cal/mol	~58 mmol/L	~68 mmol/L	about 71 mmol/L	does not produce any precipitate	–	–	–	–	–	–
